{"source": "patent US20170108514A1", "about": "“DIAGNOSIS OF MULTIPLE SCLEROSIS IN HUMAN AND ANIMAL SUBJECTS” (THE REGENTS OF THE UNIVERSITY OF COLORADO, a body corporate, priority 2014, published 2017)", "key": {"[1]": {"tested_on": "Th40 cells from MS subjects", "assay": "Antigen assay: proliferation of CFSE-labeled T cells (Th40) exposed to autologous APC/peptide antigen for 7 days", "assay_type": "cell-based, human"}, "[2]": {"tested_on": "multiple sclerosis patients", "conditions": "human, in vivo; cited from earlier work"}, "[3]": {"tested_on": "multiple sclerosis patients", "conditions": "cited from earlier work; for MRI / MRI lesions / disease / disability progression / relapses / attacks: MS patients; for relapses / attacks: clinical reports"}, "[4]": {"conditions": "DR4 co-expressed with DR2, antigen 5 μg/ml"}, "[5]": {"conditions": "DR4 co-expressed with DR6, antigen 5 μg/ml"}, "[6]": {"conditions": "DR6 a fixed allele, any haplotype at other allele, antigen 5 μg/ml"}, "[7]": {"conditions": "RRMS subjects, DR2 at one allele, other allele any haplotype, antigen 5 μg/ml"}, "[8]": {"conditions": "DR2 and DR6 co-expressed, antigen 5 μg/ml"}, "[9]": {"conditions": "DR4 expressing MS subjects, open second allele, antigen 5 μg/ml"}, "[10]": {"conditions": "DR6 at both alleles, antigen 5 μg/ml"}}, "note": "Structures can show the parent of a compound that is named as a salt."}
{"compound": "ADPGSRPHLIRLFSRDAPGR [MBP83, MS associated peptide antigen from MBP]", "values": [{"measurement": "antigen response by Th40 cells", "setting": "[1]; [4]", "value": "diminished"}, {"measurement": "antigen response by Th40 cells", "setting": "[1]; [5]", "value": "increased"}, {"measurement": "antigen response by Th40 cells", "setting": "[1]; [6]", "value": "best response"}, {"measurement": "antigen response by Th40 cells", "setting": "[1]; [7]", "value": "least reactive"}]}
{"compound": "FFRDHSYQE [MOG99, MS associated peptide antigen from MOG]", "values": [{"measurement": "antigen response by Th40 cells", "setting": "[1]; [8]", "value": "significantly less response"}, {"measurement": "antigen response by Th40 cells", "setting": "[1]; [4]", "value": "remains high"}, {"measurement": "antigen response by Th40 cells", "setting": "[1]; [5]", "value": "unaffected"}, {"measurement": "antigen response by Th40 cells", "setting": "[1]; [9]", "value": "responded"}, {"measurement": "antigen response by Th40 cells", "setting": "[1]; [7]", "value": "best antigen response"}]}
{"compound": "C/C(O)=C(\\C#N)C(=O)Nc1ccc(C(F)(F)F)cc1", "note": "[Aubagio, teriflunomide]", "values": [{"measurement": "safety in patients", "setting": "[2]", "value": "moderate potential for hepatotoxicity"}]}
{"compound": "CCCCCCCCc1ccc(CCC(N)(CO)CO)cc1", "note": "[Gilenya, fingolimod]", "values": [{"measurement": "safety in patients", "setting": "[2]", "value": "extremely immune-suppressive"}]}
{"compound": "MEVGWYRPPFSRVVHLYRNGK [MOG35, MS associated peptide antigen from MOG]", "values": [{"measurement": "antigen response by Th40 cells", "setting": "[1]; [8]", "value": "prominent response antigen"}, {"measurement": "antigen response by Th40 cells", "setting": "[1]; [9]", "value": "very little response"}]}
{"compound": "Natalizumab [Tysabri]", "values": [{"measurement": "MRI / MRI lesions", "setting": "[3]; reports", "value": "some positive effects on MRI"}, {"measurement": "disease / disability progression", "setting": "[3]; reports", "value": "slow progression"}, {"measurement": "reduction in relapse rate", "setting": "[3]; reports, MS subjects, IV infusion once every four weeks", "value": "two-thirds"}]}
{"compound": "COC(=O)/C=C/C(=O)OC", "note": "[Tecfidera, dimethyl fumarate]", "values": [{"measurement": "relapses / attacks", "setting": "[3]", "value": "some reduction in the average annual number of relapses"}, {"measurement": "disease / disability progression", "setting": "[3]; reports", "value": "not reduced significantly"}]}
{"compound": "AQGTLSKIFKLGGRDSRSGSPMARR [MBP146, MS associated peptide antigen from MBP]", "values": [{"measurement": "antigen response by Th40 cells", "setting": "[1]; [8]", "value": "no response"}, {"measurement": "antigen response by Th40 cells", "setting": "[1]; [10]", "value": "worst response antigen"}]}
{"compound": "Glatiramer acetate [Copaxone]", "values": [{"measurement": "relapses / attacks", "setting": "[3]", "value": "decreasing frequency and severity of attacks"}, {"measurement": "MRI / MRI lesions", "setting": "[3]; reports", "value": "no reports of changes in MRI lesions"}]}
{"compound": "O=C1c2c(O)ccc(O)c2C(=O)c2c(NCCNCCO)ccc(NCCNCCO)c21", "note": "[Novantrone, mitoxantrone]", "values": [{"measurement": "relapses / attacks", "setting": "[3]", "value": "lessens relapses"}, {"measurement": "disease / disability progression", "setting": "[3]; reports", "value": "slows progression"}]}
{"compound": "LVERGNHSKIVAGVLGLI [PLP103, MS associated peptide antigen from PLP]", "values": [{"measurement": "antigen response by Th40 cells", "setting": "[1]; [8]", "value": "significantly greater than the remaining antigens tested"}, {"measurement": "antigen response by Th40 cells", "setting": "[1]; [9]", "value": "equally"}, {"measurement": "antigen response by Th40 cells", "setting": "[1]; [6]", "value": "best response"}, {"measurement": "antigen response by Th40 cells", "setting": "[1]; [10]", "value": "best Th40 response"}]}
{"compound": "alemtuzumab [Lemtrada]", "values": [{"measurement": "safety in patients", "setting": "[2]", "value": "significantly increases the risk for opportunistic infections"}]}
